Measurements taken from US20260324636A1, “COMPOSITION FOR PROVIDING PLANT WITH STRESS RESISTANCE” (KIRIN HOLDINGS KABUSHIKI KAISHA, priority 2022, published 2026).

How the values were obtained:
H1ZAT12 = H1ZAT12 gene expression by real-time PCR, Example 13; type: in vivo, hop; details: 1 mM in medium, 20° C. for 2 hours, leaves; read-out: H1ZAT12 expression level, increase vs control
Text: The materials as used in Example 4 were used.
The medium as used in Example 4 were used.
In order to design primers for the target genes necessary for gene expression analysis by real-time PCR, homologs of Arabidopsis thaliana oxidation stress-responsive genes in hop were searched for. The amino acid sequences of Arabidopsis thaliana ZAT10 (AGI code: AT1G27730) and ZAT12 (AGI code: AT5G59820) were obtained from TAIR (https://www.arabidopsis.org/), and the nucleotide sequences of the gene homologs were obtained using Hopbase (http:/hopbase.cgrb.oregonstate.edu/). […] As the reference gene, the nucleotide sequence of the homolog of Arabidopsis thaliana EF1α (AGI code: AT1G18070) was obtained. The hop homolog genes were designated as H1ZAT10, H1ZAT12, and HIEF1α, respectively.
The leaves in the first and the second nodes from the apical buds of the tissue-cultured seedlings were sampled 1.5 months after the initiation of subculture and inoculated into a liquid medium consisting of a ½ Murashige and Skoog Plant Salt Mixture and 2 (w/v) % glucose. Specifically, a liquid medium was dispensed at 5 ml/well to a 6-well microplate, and 5 hop leaves were mounted thereon. […]
Thereafter, the relative expression levels of the target genes upon N-acetylglutamic acid treatment were calculated by the ΔΔCt method.

ZAT10 = experiment: Histone H4 acetylation level of ZAT10 by chromatin immunoprecipitation and quantitative PCR, Example 14; type: in vivo, Arabidopsis thaliana (Col-0); details: Arabidopsis thaliana; 0.4 mM in medium, 2 hours after application; read-out: histone H4 acetylation level of ZAT10, increase vs group not subjected to the treatment
Method: A wild-type Arabidopsis thaliana strain (accession: Col-0) was used as an experimental material. Seeds were purchased from Inplanta Innovations Inc.
A liquid medium containing a ½ Murashige and Skoog Plant Salt Mixture (Nacalai) and 1 (w/v) % sucrose (FUJIFILM Wako) was used as a growth medium.
Arabidopsis thaliana seeds were sterilized with the use of a Kitchen Haiter® liquid (Kao Corporation) diluted to one-half concentration with distilled water for 3 minutes, washed 3 times with sterile distilled water, and then incubated at 4° C. overnight. The growth medium (100 ml) was prepared in a 300-ml flask, the incubated seeds were seeded therein, the flask was transferred to an incubator (TOMY), and shake culture was then initiated. The incubator was maintained at a temperature of 22° C. for a daily cycle of 16 hours light and 8 hours darkness, and the rotation speed of the shaker was set at 180 rpm.
A stock solution of N-acetylglutamic acid (Tokyo Chemical Industry Co., Ltd.) was added to Arabidopsis thaliana 7 days after seeding to the final concentration of 0 mM and 0.4 mM in the media, followed by incubation for 2 hours. Sample fixation following incubation was performed in accordance with Yamaguchi et al (Arabidopsis Book, Feb. 17, 2014; 12: e0170). […]

With `CC(=O)N[C@@H](CCC(=O)O)C(=O)O` [N-acetylglutamic acid] the fold induction at 1000 µM (H1ZAT12) was 1.9 and the fold induction at 400 µM (ZAT10) was 1.9.
